Data from patent publication US20230257366A1, “SULFUR-CONTAINING ISOINDOLINE DERIVATIVE, AND PREPARATION METHOD THEREFOR AND MEDICAL USE THEREOF” (JIANGSU HENGRUI PHARMACEUTICALS CO., LTD., priority 2020, published 2023).

Test system: NCI-H929 cells
Assay: NCI-H929 proliferation experiment (CellTiter-Glo, 5 days)
Format: cell-based
Settings: Homo sapiens, 120 h, 5 days incubation, read-out: IC50 values for the inhibition of proliferation of NCI-H929 cells
Protocol: The following method was used to determine the inhibitory activity of the compounds of the present disclosure on the proliferation of NCI-H929 cells. The experimental method was briefly described as follows.
NCI-H929 cells (ATCC, CRL-9068) were cultured in a complete medium (RPMI 1640 medium (Hyclone, SH30809.01) containing 10% fetal bovine serum (Corning, 35-076-CV) and 0.05 mM 2-mercaptoethanol (Sigma, M3148)). On the first day of the experiment, NCI-H929 cells were seeded in a 96-well plate at a density of 6000 cells/well with a complete medium to form 100 μL of cell suspension per well, and 10 μL of test compound prepared in a complete medium and diluted in a gradient was added to each well. The compound was firstly dissolved in DMSO, with an initial concentration of 10 mM, and then subjected to serial dilution at a 5-fold concentration gradient for a total of 9 concentration points, with a blank control of 100% DMSO. Another 5 μL of the compound dissolved in DMSO was added to 95 μL of complete medium, i.e., the compound was diluted 20-fold with the complete medium. Finally the compound diluted in the complete medium at 10 μL/well was added to the cell suspension, wherein the final concentrations of the compound were 9 concentration points obtained by 5-fold gradient dilution starting from 50 μM. A blank control containing 0.5% DMSO was set. The plate was incubated in a cell incubator at 37° C. with 5% CO2 for 5 days. On the sixth day, the 96-well cell culture plate was taken out, added with a CellTiter-Glo® luminescent cell activity detect reagent (Promega, G7573) at 50 μL/well, left to stand at room temperature for 10 min, and read for the luminescence signal values using a multi-mode microplate reader (PerkinElmer, EnVision 2015). IC50 values for the inhibitory activity of the compounds were calculated using Graphpad Prism software, with the results shown in Table 1.

## N#Cc1ccc(N2CCC(Sc3ccc(COc4cccc5c4CN(C4CCC(=O)NC4=O)C5=O)cc3)CC2)c(F)c1 (centres unmarked) [Compound 1, 4-(4-((4-(((2-(2,6-dioxopiperidin-3-yl)-1-oxoisoindolin-4-yl)oxy)methyl)phenyl)thio)piperidin-1-yl)-3-fluorobenzonitrile]
  IC50: 0.34 nM

## N#Cc1ccc(N2CCC(Sc3ccc(COc4cccc5c4C(=O)N(C4CCC(=O)NC4=O)C5=O)cc3)CC2)c(F)c1 (centres unmarked) [Compound 2, 4-(4-((4-(((2-(2,6-dioxopiperidin-3-yl)-1,3-dioxoisoindolin-4-yl)oxy)methyl)phenyl)thio)piperidin-1-yl)-3-fluorobenzonitrile]
  IC50: 4.36 nM

## N#Cc1ccc(N2CCC(Sc3ccc(COc4cccc5c4CN([C@H]4CCC(=O)NC4=O)C5=O)cc3)CC2)c(F)c1 [Compound 3, (S)-4-(4-((4-(((2-(2,6-dioxopiperidin-3-yl)-1-oxoisoindolin-4-yl)oxy)methyl)phenyl)thio)piperidin-1-yl)-3-fluorobenzonitrile]
  IC50: 0.1 nM

## N#Cc1ccc(N2CCC(Sc3ccc(COc4cccc5c4CN([C@H]4CCC(=O)NC4=O)C5=O)cc3F)CC2)c(F)c1 [Compound 4, (S)-4-(4-((4-(((2-(2,6-dioxopiperidin-3-yl)-1-oxoisoindolin-4-yl)oxy)methyl)-2-fluorophenyl)thio)piperidin-1-yl)-3-fluorobenzonitrile]
  IC50: 0.17 nM

## N#Cc1ccc(N2CCC(Sc3ccc(COc4cccc5c4CN([C@H]4CCC(=O)NC4=O)C5=O)c(F)c3)CC2)c(F)c1 [Compound 5, (S)-4-(4-((4-(((2-(2,6-dioxopiperidin-3-yl)-1-oxoisoindolin-4-yl)oxy)methyl)-3-fluorophenyl)thio)piperidin-1-yl)-3-fluorobenzonitrile]
  IC50: 0.08 nM

## N#Cc1ccc(N2CCC(Sc3ncc(COc4cccc5c4CN([C@H]4CCC(=O)NC4=O)C5=O)cn3)CC2)c(F)c1 [Compound 7, (S)-4-(4-((5-(((2-(2,6-dioxopiperidin-3-yl)-1-oxoisoindolin-4-yl)oxy)methyl)pyrimidin-2-yl)thio)piperidin-1-yl)-3-fluorobenzonitrile]
  IC50: 0.13 nM

## N#Cc1ccc(N2CCC(Sc3ccc(COc4cc(F)cc5c4CN([C@H]4CCC(=O)NC4=O)C5=O)cn3)CC2)c(F)c1 [Compound 8, (S)-4-(4-((5-(((2-(2,6-dioxopiperidin-3-yl)-6-fluoro-1-oxoisoindolin-4-yl)oxy)methyl)pyridin-2-yl)thio)piperidin-1-yl)-3-fluorobenzonitrile]
  IC50: 0.28 nM

## N#Cc1ccc(N2CCC(Sc3ccc(COc4cccc5c4CN([C@H]4CCC(=O)NC4=O)C5=O)nc3)CC2)c(F)c1 [Compound 9, (S)-4-(4-((6-(((2-(2,6-dioxopiperidin-3-yl)-1-oxoisoindolin-4-yl)oxy)methyl)pyridin-3-yl)thio)piperidin-1-yl)-3-fluorobenzonitrile]
  IC50: 0.9 nM

## N#Cc1ccc(N2CCC(Sc3ccc(COc4cccc5c4CN([C@H]4CCC(=O)NC4=O)C5=O)c(F)c3F)CC2)c(F)c1 [Compound 10, (S)-4-(4-((4-(((2-(2,6-dioxopiperidin-3-yl)-1-oxoisoindolin-4-yl)oxy)methyl)-2,3-difluorophenyl)thio)piperidin-1-yl)-3-fluorobenzonitrile]
  IC50: 0.18 nM

## N#Cc1ccc(N2CCC(Sc3cc(F)c(COc4cccc5c4CN([C@H]4CCC(=O)NC4=O)C5=O)cc3F)CC2)c(F)c1 [Compound 11, (S)-4-(4-((4-(((2-(2,6-dioxopiperidin-3-yl)-1-oxoisoindolin-4-yl)oxy)methyl)-2,5-difluorophenyl)thio)piperidin-1-yl)-3-fluorobenzonitrile]
  IC50: 0.22 nM

## N#Cc1ccc(N2CCC(Sc3c(F)cc(COc4cccc5c4CN([C@H]4CCC(=O)NC4=O)C5=O)cc3F)CC2)c(F)c1 [Compound 12, (S)-4-(4-((4-(((2-(2,6-dioxopiperidin-3-yl)-1-oxoisoindolin-4-yl)oxy)methyl)-2,6-difluorophenyl)thio)piperidin-1-yl)-3-fluorobenzonitrile]
  IC50: 0.61 nM
